Experiments:
C57BL/6 mice = test: Hair regrowth after dorsal hair removal in mice; type: in vivo
Description: Wild-type C57BL/6 mice (7-8 weeks old) were placed in the lateral decubitus position on a sterile paper sheet after anesthesia using intraperitoneal injection of ketamine (60 mg/kg) and xylazine (4 mg/kg). Sterile surgical instruments (autoclaved) were used during dorsal hair removal. The skin was prepared for hair removal on the dorso-lateral skin (from neck to tail) by shaving with a mechanical shaver, and then hair removal cream (Nair) was placed on the skin for 30-60 seconds. Hair was removed completely by gently wiping the skin with cotton balls soaked in warm water and disinfected using 70% ethanol wipes and betadine 3 times.
After dorsal hair removal, mice were placed in a clean cage on the heating pad for 30 minutes or until recovery. […]
At day 14, the backs of the mice were photographed with a digital camera, to evaluate the darkening of skin color. […] In morphological observation (FIG. 1A and FIG. 1), hair growth area was determined as a percentage after photographing hair growth state on the backs of mice and observation was conducted after hair removal at day 0 and after 4-AP treatment (daily systemic) at day 14. […] The level of hair regrowth/pigmentation was quantified by the intensity of the darkness of the back skin in the same area. […]

[1] = system: keratinocytes co-cultured with SCs (10:1); test: Co-culture scratch assay, keratinocytes with Schwann cells; type: cell-based, human
Description: To determine the influence of Schwann cells and fibroblast on keratinocytes migration and proliferation wound healing scratch assay was conducted. The co-culture experiment performed in Keratinocytes to either Schwann cells or fibroblasts in a ratio of 10:1 with same proposition of their respective medium were seeded on 96-well ImageLock microplate for 6 hours and the wells were pre-coated with collagen-I plate. For the drug treatment cells were pretreated with 4-AP prior to coating for 16-18 hours. Next, the wound scratch was created and treated cells with and without 4-AP in medium. Imaged for every hour until 24 hour and analyzed for percent of closure as described above procedure.

[2] = system: human foreskin primary keratinocytes; test: Scratch wound healing migration assay, primary keratinocytes; type: cell-based
Description: Keratinocytes isolation, culture conditions and characterization—The isolated epidermis was placed in a petri dish containing HEPES buffer for 10 minutes at room temperature, then treated with trypsin at 37° C. until the epidermis became loose and medium cloudy due to keratinocytes release. The cloudy medium was collected and trypsin activity neutralized using fetal bovine serum (FBS) in 1:1 ratio. The epidermis suspended keratinocytes were centrifuges at 1500 rpm for 5 minutes. The pellet resuspended in KGM-GOLD keratinocytes medium (Lonza KGM gold and supplements, Catlog No. 00192151 and 00192152). The isolated foreskin cultured on a culture dish and placed at 37° C. in 5% CO2 incubator for 1-2 days to allow keratinocytes to adhere. Adhere keratinocytes were continued incubation in KGM-Gold medium until cells reach about 80% confluent.
Keratinocytes/Schwann cells/fibroblasts (7×10^4 cells/well keratinocytes and 3.5×10^4 cells/well of SCs and FBs) with their respective medium were seeded on pre-coated either with collagen-I/PLL/no 96-well ImageLock microplate for 6 hours (Incucyte-sartorius plate, Cat log 4379). For the drug treatment cells were pretreated with 4-AP prior to coating for 16-18 hours. Next, the wound scratch was created using IncuCyte automated system (Essen BioScience). After scratches the cells washed with PBS and the respective cells medium was added with or without 1 mM of 4-AP. The plate was incubated in Incucyte automated imaging system, wound healing and cells migration was monitored by time-lapse photography capturing every hour from 0 to 42 hours. The relative area of wound size and cells migration at each time point was analyzed using IncuCyte™ Scratch Wound Cell Migration Software Module (Essen BioScience) and the percent of wound healing was calculated from the area measured after scratching relative to the basal area as expressed in pixels.
Indirect immunofluorescence was used to identify, characterize and to analyze the proliferation after 4-AP treatment. […]

Nc1ccncc1 [4-AP, 4-aminopyridine] was tested, and the “number of hair follicles (H&E transverse sections)” value (C57BL/6 mice; day 14, compared with saline treated mice) was “increased”, the hair regrowth (C57BL/6 mice; day 14 after hair removal, systemic ip 10-50 μg/daily) was “around 50%” and the “percentage of wound closure” value ([1]; at 15 hours, 80% in non-treated) was 98%. For the same molecule, the “time to scratch closure” value ([1]; with 4-AP, 20 hours without treatment) was at most 15 h, the “time of complete scratch closure” value ([2]; 1 mM 4-AP, control closed at 32 hours) was 18 h and the “SOX10 and NGF expression in keratinocytes” value ([2]; 4-AP treated vs no treatment) was “both increased”. The “expression of keratins associated with keratinocyte differentiation (K10)” value ([2]; 4-AP treated vs no treatment) was “did not increase”.

— patent publication US20240024216A1, “METHODS AND MATERIALS FOR TREATING HAIR LOSS” (The Penn State Research Foundation, priority 2021, published 2024)
